Experimental findings from patent US20220362396A1, “AMINO-PYRAZINECARBOXAMIDE COMPOUNDS, CONJUGATES, AND USES THEREOF” (Silverback Therapeutics, Inc., priority 2018, published 2022) are described below.

Test [1] concerns TGFβ/SMAD Signaling Pathway SBE reporter cell line. The test is described as follows: TGFβ reporter assay, in vitro small molecule screening (luciferase). The following applies: TGFβ stimulation, luminescence. The test is classed as cell-based. The protocol: TGFβ/SMAD Signaling Pathway SBE reporter cell line was obtained from BPS Bioscience. Cells were passed, expanded, and stored in liquid nitrogen as per the supplier's instructions with the exception that growth media is changed to DMEM-C with Geneticin (DMEM supplemented with 10% fetal bovine serum, 1×NEAA, 1 mM Pyruvate, 2 mM glutamine, 50 μg/mL penicillin, 50 U/mL streptomycin and 400 μg/mL of Geneticin). The assay media was MEM supplemented with 0.5% fetal bovine serum, 1×NEAA, 1 mM Pyruvate, 50 μg/mL penicillin and 50 U/mL streptomycin.
Test samples (at desired concentrations diluted in assay media) were added to a 96-well assay plate, 20 μL per well. Reporter cells were harvested from the tissue culture flasks by incubation in small quantity of PBS at 37° C. for two minutes after the media in the flask is removed and cells rinsed with PBS. Cells were counted and diluted in the assay media at approximately 0.5×10^6 cells/mL and then 80 μL/well of cells were added to the assay plate containing the 20 μL/well of test samples (or media only), and incubated for approximately 5-6 hours at 37° C. in a 5% CO2 humidified incubator. After that time, 15 μL of TGFβ diluted to 12 ng/mL in the assay media was added to the plate. Controls included TGFβ titration (from 50 to 0 ng/mL) without inhibitors, and media only (without cells, inhibitor or TGFβ). Plates were incubated at 37° C. in a 5% CO2 humidified incubator for 18 h. Luciferase substrate solution is subsequently added at 100 μL per well, incubated in the dark at room temperature for 15 min, and luminescence is measured using a luminometer. EC50 values and curve fits were obtained using Prism (GraphPad Software).
On the technique in general: A reporter such as luciferase makes a cellular process visible.

Another test has as its target T1, TGFBR2 (Homo sapiens, UniProt P37173).
T1 construct: purchased Reaction Biology Corp
In words: TGFBR2 RBC assay (enzyme inhibition assay, Reaction Biology Corp.). It is filed as biochemical. Here is the method:
Compounds of the disclosure were also assayed by Reaction Biology Corp. using the TGFBR2 RBC assay (enzyme inhibition assay). […] NT refers to not tested.

T1 sequence (P37173 23-567): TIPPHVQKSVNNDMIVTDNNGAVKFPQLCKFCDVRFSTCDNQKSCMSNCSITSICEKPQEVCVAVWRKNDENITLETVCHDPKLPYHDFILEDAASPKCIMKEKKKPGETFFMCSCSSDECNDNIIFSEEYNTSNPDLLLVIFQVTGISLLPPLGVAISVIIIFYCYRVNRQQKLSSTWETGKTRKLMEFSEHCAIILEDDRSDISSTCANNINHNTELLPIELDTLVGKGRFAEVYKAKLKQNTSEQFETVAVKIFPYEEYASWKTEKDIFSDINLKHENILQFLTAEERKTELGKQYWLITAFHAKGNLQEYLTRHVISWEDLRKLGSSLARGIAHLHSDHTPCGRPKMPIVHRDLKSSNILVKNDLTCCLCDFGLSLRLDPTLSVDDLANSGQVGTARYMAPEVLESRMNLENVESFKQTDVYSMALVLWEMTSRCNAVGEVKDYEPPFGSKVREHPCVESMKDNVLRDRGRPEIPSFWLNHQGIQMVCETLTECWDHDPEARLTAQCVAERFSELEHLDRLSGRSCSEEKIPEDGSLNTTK

In the case of `NCc1ccc(-c2cnc(N)c(C(=O)Nc3cnccc3N3CCOCC3)n2)cc1` [Compound 7], in test [1], the EC50 lay within 0.05 to 0.1 µM. This compound also came in with an IC50 at TGFBR2 of less than 0.05 µM.

Turning to `CC(CN)Oc1ccc(-c2cnc(N)c(C(=O)Nc3cnccc3N3CCCOCC3)n2)cc1` (stereo not shown) [Compound 256], in test [1], the EC50 lay in the range of 0.1 to 1 µM. Further, the IC50 against TGFBR2 is 0.05 to 0.1 µM.

As to `NCC1CCc2cc(-c3cnc(N)c(C(=O)Nc4cnccc4N4CCOCC4)n3)ccc2O1` (stereo not shown) [Compound 237], the EC50 in test [1] fell in the range of 0.05 to 0.1 µM. The half-inhibitory concentration (IC50) on TGFBR2 was less than 0.05 µM.

Consider `NCCCc1ccc(-c2cnc(N)c(C(=O)Nc3cnccc3N3CCOCC3)c2)cc1` [Compound 69], for which, in test [1], the EC50 was more than 1 µM. The compound also had an IC50 on TGFBR2 of more than 1 µM.

On to `Nc1ncc(-c2ccc(O[C@H]3CCN(C(=O)OCc4ccccc4)C3)cc2)nc1C(=O)Nc1cnccc1N1CCOCC1` [Compound 164], for which the EC50 in test [1] is 0.1 to 1 µM. Besides, the IC50 at TGFBR2 lay in the range of 0.05 to 0.1 µM.

`NCC1COCCN1c1ccncc1NC(=O)c1nc(-c2ccc(CCNC(=O)OCc3ccccc3)cc2)cnc1N` (stereo not shown) [Compound 37] displayed an EC50 in test [1] of more than 1 µM. Besides, the IC50 on TGFBR2 is more than 1 µM.

`NCCOc1ccc(-c2cnc(N)c(C(=O)Nc3cnccc3N3CCOCC3)n2)cc1` [Compound 64] had a concentration for a half-maximal effect (EC50) in test [1] of 0.05 to 0.1 µM. This compound also yielded an IC50 on TGFBR2 of less than 0.05 µM.

`CNCCc1ccc(-c2cnc(N)c(C(=O)Nc3cnccc3N3CCOCC3)n2)cc1` [Compound 44]: the EC50 in test [1] was in the range of 0.1 to 1 µM. For the same compound, on TGFBR2, the IC50 fell in the range of 0.1 to 1 µM.

`Nc1ncc(-c2ccc(C[C@H](N)CO)cc2)nc1C(=O)Nc1cnccc1N1CCOCC1` [Compound 210] showed an EC50 in test [1] of 0.1 to 1 µM. Also, the IC50 on TGFBR2 was less than 0.05 µM.

For `Nc1ncc(-c2ccc3c(c2)CCCO3)nc1C(=O)Nc1cnccc1N1CCOCC1` [Compound 174], the EC50 in test [1] is 0.1 to 1 µM. At TGFBR2, this compound registered an IC50 of less than 0.05 µM.

On to `Nc1ncc(-c2ccc(N3CCNCC3)cc2)nc1C(=O)Nc1cnccc1N1CCOCC1` [Compound 70], for which the EC50 in test [1] lay in the range of 0.05 to 0.1 µM. This compound registered an IC50 at TGFBR2 of less than 0.05 µM.

On to `COC(=O)[C@H](CCOc1ccc(-c2cnc(N)c(C(=O)Nc3cnccc3N3CCOCC3)n2)cc1)NC(=O)OCc1ccccc1` [Compound 264], for which the EC50 in test [1] was more than 1 µM. For the same compound, at TGFBR2, the IC50 was less than 0.05 µM.

With `Nc1ncc(-c2ccc(CCNC(=O)OCc3ccccc3)cc2)nc1C(=O)Nc1cnccc1N1CCCOC1=O` [Compound 38], in test [1], the EC50 is 0.1 to 1 µM. On TGFBR2, this compound yielded a 50% inhibitory concentration (IC50) of 0.1 to 1 µM.

`Nc1ncc(-c2ccc(CCNC(=O)OCc3ccccc3)cc2)nc1C(=O)Nc1cnccc1-c1ccnc2ccccc12` [Compound 19] returned an EC50 in test [1] of more than 1 µM. This compound came in with an IC50 against TGFBR2 of more than 1 µM.

The compound `Nc1ncc(-c2ccc(CCNC(=O)OCc3ccccc3)cc2)nc1C(=O)Nc1cnc(F)cc1N1CCOCC1` [Compound 236] returned an EC50 in test [1] of more than 1 µM. The same compound had an IC50 against TGFBR2 of less than 0.05 µM.

`CC(C)[C@H](NC(=O)OC(C)(C)C)C(=O)N[C@@H](C)C(=O)NCc1ccc(-c2cnc(N)c(C(=O)Nc3cnccc3N3CCOCC3)n2)cc1` [Compound 107] gave an EC50 in test [1] of 0.1 to 1 µM. The same compound came in with an IC50 on TGFBR2 of less than 0.05 µM.

As for `Nc1ncc(-c2ccc(O[C@H]3CCCNC3)cc2)nc1C(=O)Nc1cnccc1N1CCOCC1` [Compound 169], the EC50 in test [1] lay in the range of 0.05 to 0.1 µM. On TGFBR2, this compound registered a half-inhibitory concentration (IC50) of less than 0.05 µM.

For the compound `Nc1ncc(-c2ccc3c(c2)CC(N)C3)nc1C(=O)Nc1cnccc1N1CCOCC1` (stereo not shown) [Compound 213], the concentration giving a half-maximal response (EC50) in test [1] lay within 0.05 to 0.1 µM. The compound also gave an IC50 against TGFBR2 of less than 0.05 µM.

Turning to `Nc1ncc(-c2ccc(CCNC(=O)OCc3ccccc3)cc2)nc1C(=O)Nc1cnccc1-c1ccccc1` [Compound 121], the EC50 in test [1] was in the range of 0.1 to 1 µM. This compound returned an IC50 on TGFBR2 of less than 0.05 µM.

In turn, `CC(N)COc1ccc(-c2cnc(N)c(C(=O)Nc3cnccc3N3CCOCC3)n2)cc1` (stereo not shown) [Compound 205] displayed an EC50 in test [1] of 0.1 to 1 µM. The IC50 at TGFBR2 is less than 0.05 µM.

The compound `Nc1ncc(-c2ccc(N3CC[C@H](N)C3)cc2)nc1C(=O)Nc1cnccc1N1CCOCC1` [Compound 277] yielded an EC50 in test [1] of 0.05 to 0.1 µM. The half-maximal inhibitory concentration (IC50) against TGFBR2 was less than 0.05 µM.

In test [1], `Nc1ncc(-c2ccc(CCNC(=O)OCc3ccccc3)cc2)nc1C(=O)Nc1cncc(-c2ccccc2[N+](=O)[O-])c1` [Compound 144] yielded a half-maximal effective concentration (EC50) of more than 1 µM. For the same compound, the IC50 against TGFBR2 was less than 0.05 µM.

In test [1], `Cc1cnccc1-c1ccncc1NC(=O)c1nc(-c2ccc(CCNC(=O)OCc3ccccc3)cc2)cnc1N` [Compound 32] yielded an EC50 of 0.05 to 0.1 µM. This compound also had an IC50 at TGFBR2 of 0.1 to 1 µM.

`Nc1ncc(-c2ccc3ccccc3c2)nc1C(=O)Nc1cnccc1N1CCOCC1` [Compound 252] gave a concentration for a half-maximal effect (EC50) in test [1] of 0.1 to 1 µM. The compound further returned an IC50 against TGFBR2 of less than 0.05 µM.

`Nc1ncc(-c2ccc(CCNC(=O)OCc3ccccc3)cc2)nc1C(=O)Nc1cnccc1N1CCC(F)(F)CC1` [Compound 29] returned an EC50 in test [1] of 0.1 to 1 µM. This compound registered an IC50 against TGFBR2 of more than 1 µM.

Take `COc1cccc(OC)c1-c1cnc(N)c(C(=O)Nc2cnccc2N2CCOCC2)n1` [Compound 172]: the EC50 in test [1] is more than 1 µM. The same compound showed an IC50 at TGFBR2 of more than 1 µM.

With `Nc1ncc(-c2ccc(CCNC(=O)OCc3ccccc3)cc2)nc1C(=O)Nc1cnccc1-c1ccncc1` [Compound 5.1, Benzyl (4-(6-([4,4′-bipyridin]-3-ylcarbamoyl)-5-aminopyrazin-2-yl)phenethyl)carbamate], the EC50 in test [1] fell in the range of 0.1 to 1 µM. The same compound gave an IC50 against TGFBR2 of less than 0.05 µM.

In test [1], `Nc1ncc(-c2ccc(CC(=O)N3CCN(C(=O)OCc4ccccc4)CC3)cc2)nc1C(=O)Nc1cnccc1N1CCOCC1` [Compound 90] showed an EC50 of 0.05 to 0.1 µM. This compound also showed an IC50 against TGFBR2 of less than 0.05 µM.

Take `Nc1ncc(-c2ccc(OCC[C@@H](NC(=O)OCc3ccccc3)C(=O)O)cc2)nc1C(=O)Nc1cnccc1N1CCOCC1` [Compound 276]: the EC50 in test [1] is more than 1 µM. For the same compound, the IC50 at TGFBR2 was less than 0.05 µM.

As to `Nc1ncc(-c2ccc(CCNC(=O)OCc3ccccc3)cc2)nc1C(=O)Nc1cnccc1-n1ccnc1` [Compound 137], in test [1], the EC50 was more than 1 µM. At TGFBR2, this compound yielded an IC50 of less than 0.05 µM.

Consider `Nc1ncc(-c2ccc(CCNC(=O)OCc3ccccc3)cc2)nc1C(=O)Nc1cnccc1-n1ccnc1-c1ccccc1` [Compound 146], for which the IC50 on TGFBR2 fell in the range of 0.1 to 1 µM.

Turning to `N#Cc1cnccc1-c1ccncc1NC(=O)c1nc(-c2ccc(CCNC(=O)OCc3ccccc3)cc2)cnc1N` [Compound 10], in test [1], the EC50 is more than 1 µM.

Regarding `Nc1ncc(-c2ccc(N3CCC[C@H](N)C3)cc2)nc1C(=O)Nc1cnccc1N1CCOCC1` [Compound 285], the EC50 in test [1] lay within 0.05 to 0.1 µM.

For `NCCc1ccc(-c2cnc(N)c(C(=O)Nc3cncc(-c4ccccc4[N+](=O)[O-])c3)n2)cc1` [Compound 147], the IC50 against TGFBR2 was 0.05 to 0.1 µM.

`NCCc1ccc(-c2cnc(N)c(C(=O)Nc3cnccc3-n3ccnc3-c3ccccc3)n2)cc1` [Compound 145] displayed an IC50 on TGFBR2 of 0.1 to 1 µM.

Compound `C[C@@H](C(=O)O)N(C)c1ccc(-c2cnc(N)c(C(=O)Nc3cnccc3N3CCOCC3)n2)cc1` [Compound 298] gave an EC50 in test [1] of 0.1 to 1 µM.

`N#Cc1cnccc1-c1ccncc1NC(=O)c1nc(-c2ccc(CCNC(=O)OCc3ccccc3)cc2)cnc1N` [Compound 9] returned an EC50 in test [1] of 0.1 to 1 µM.

In test [1], `NCCc1ccc(-c2cnc(N)c(C(=O)Nc3cnccc3N3CCOCC3CO)n2)cc1` (stereo not shown) [Compound 8] displayed an EC50 of 0.1 to 1 µM.

For `N#Cc1ncccc1-c1ccncc1NC(=O)c1nc(-c2ccc(CCNC(=O)OCc3ccccc3)cc2)cnc1N` [Compound 13], the 50% effective concentration (EC50) in test [1] was more than 1 µM.

On to `Nc1ncc(-c2ccc(OCCNC(=O)OCc3ccccc3)cc2)nc1C(=O)Nc1cnccc1N1CCOCC1` [Compound 45], for which, on TGFBR2, the IC50 is less than 0.05 µM.

As usually defined, the EC50 is the midpoint of the concentration-response curve. A higher EC50 goes with a need for much substance. One may read the IC50 as the concentration that gives 50% inhibition.
